Some test systems named below: NCI/ADR-RES ovarian; MDA-MB-231 breast; MDA-N; T-47D breast; XF 498 CNS; M19-MEL melanoma; RXF-631 renal.
Test in all cases: inhibition of tumour cell growth, NCI panel, 48 h

The structures appear in SMILES notation. Where “and” joins values, the source holds several entries; their conditions need not be identical. Identical values can stand only once.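 Following 48 hours of exposure in 96-well plates, responses at five concentrations were used to interpolate endpoints linearly. GI50 is the concentration that inhibits growth by half. TGI: concentration producing complete growth inhibition.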 Bounds are passed on as bounds.

Turning to `CC12CCC(O)CC1CCC1C2CCC2(C)C(C3=CC(=O)OC3)CCC12O` (stereo unspecified), the TGI in the test on NCI/ADR-RES ovarian is 5.77 µM; in the test with MDA-MB-231 breast it was above 100 µM; in the test with MDA-N, 6.38 µM; with T-47D breast, 14.7 µM.

With `C/C(CC(=O)CCC(=O)Nc1cccc(C(F)(F)F)c1)=N\NC(=O)NN`, the TGI with XF 498 CNS, with M19-MEL melanoma and with RXF-631 renal was above 100 µM in each case.

As for `CC1(c2ccc(F)cc2)C(C#N)C(=O)NC(=O)C1C#N` (stereo unspecified), the TGI in the test on XF 498 CNS, with M19-MEL melanoma and with RXF-631 renal was above 100 µM each time.

Turning to `O=S1(=O)c2ccccc2NC(c2ccc3ccccc3c2)CC1c1ccccc1F` (stereo unspecified), the TGI in the test with XF 498 CNS, in the test on M19-MEL melanoma and in the test with RXF-631 renal was above 100 µM in each case.

Consider `Clc1cc2nsnc2c(Cl)n1`, for which the TGI in the test with XF 498 CNS turned out to be 31.2 µM; with M19-MEL melanoma, 75.5 µM.

As to `COC(=O)[C@@H]1[C@H](O)[C@H](C)[C@H](O)[C@@](C)(O)/C=C\C=C(C)C(=O)Nc2c(C)c(OC(C)=O)c3c(c2O)C(=O)C(C)=C2OCOC(=C23)C(C)=C[C@@](C)(O)[C@H](O)[C@@H](C)[C@H]1OC(C)=O`, in the test with M19-MEL melanoma, the GI50 is 15 µM; the TGI was > 100 µM and 21.6 µM and 28.3 µM. Besides, in the test on RXF-631 renal, the GI50 was > 100 µM and 39.8 µM and 36.4 µM; the TGI is > 100 µM and 66.9 µM.

`N#CC(c1ccc(Cl)cc1)c1cccc(C(C#N)c2ccc(Cl)cc2)n1` (stereo unspecified): the TGI in the test on XF 498 CNS is 26.2 µM; in the test with M19-MEL melanoma, above 100 µM.

As to `O=C1C(=O)N(c2ccc(Cl)cc2Cl)C(=O)C(=O)C1c1nc2ccccc2s1`, the TGI in the test with XF 498 CNS is 98.1 µM; with M19-MEL melanoma it was above 100 µM.

`Cc1ccc(N=Nc2ccc(N(CCC#N)CCC#N)cc2C)c(Br)c1`: the TGI with XF 498 CNS is 40.6 µM; with M19-MEL melanoma, above 100 µM; in the test with RXF-631 renal, 81.3 µM.

Turning to `CC(=O)NNc1nc(C)c(C(=O)NNC(=O)C(=O)Nc2c(Cl)cc([N+](=O)[O-])cc2Cl)s1`, the TGI in the test with M19-MEL melanoma is above 100 µM.

Turning to `COC(=O)CC1CCN(C#N)CC1CC[N+](=O)[O-]` (stereo unspecified), the TGI in the test on M19-MEL melanoma and in the test on RXF-631 renal was above 100 µM in each case.

For the molecule `COC(CN1C(=O)c2cccc3cccc(c23)C1=O)OC`, the TGI in the test with XF 498 CNS and in the test on M19-MEL melanoma was above 100 µM throughout.

As for `Cc1ccc2c(=O)cc(-c3ccc(F)cc3)[nH]c2n1`, the TGI is 86.9 µM in the test with NCI/ADR-RES ovarian, above 100 µM in the test on MDA-MB-231 breast, 32.1 µM in the test with MDA-N and above 100 µM with T-47D breast.

As to `O=C1C=C(Cl)C(=O)C(c2ccc(Cl)cc2)=C1`, the TGI in the test on NCI/ADR-RES ovarian came out at 79 µM; in the test on MDA-MB-231 breast it was 36 µM; in the test with MDA-N, 27.5 µM; with T-47D breast, 84.4 µM.

As to `Cc1nc2ccccc2c(=O)n1-c1ccccc1I`, the TGI in the test on M19-MEL melanoma is above 100 µM.

In the test on M19-MEL melanoma, `CN/N=C(/Cc1occc(=O)c1O)C(=O)Nc1ccccc1C` returned a TGI above 100 µM.

As for `c1ccc2cc(-c3cc(-c4cc(-c5ccc6ccccc6c5)on4)no3)ccc2c1`, the TGI in the test with NCI/ADR-RES ovarian, in the test with MDA-MB-231 breast, in the test with MDA-N and in the test with T-47D breast was above 100 µM throughout.

Take `O=C(O)c1ccccc1[Se][Se]c1ccccc1C(=O)O`: the TGI in the test with XF 498 CNS, in the test on M19-MEL melanoma and in the test with RXF-631 renal was above 100 µM in each case.

Take `O=CC[C@H]1C(=O)C[C@@H]2CCC[C@@H]21`: the TGI with XF 498 CNS and in the test on M19-MEL melanoma was above 100 µM each time.

In the case of `O=C(/C=C/c1ccccc1)NC1C=Nc2ccc(Cl)cc2NC1=O` (stereo unspecified), the values for the TGI with XF 498 CNS, with M19-MEL melanoma and in the test on RXF-631 renal were 50.1 µM, 64.5 µM and above 100 µM, respectively.

As to `CCCCCCCCCCCOc1ccc(C(=O)C(=O)c2ccc(OCCCCCCCCCCC)c(OCCCCCCCCCCC)c2)cc1OCCCCCCCCCCC`, the TGI in the test with XF 498 CNS and with M19-MEL melanoma was above 100 µM each time.

Regarding `COC1CCC2C(NS(=O)(=O)c3ccc(C)cc3)CCCC2O1` (stereo unspecified) (tested in a mixture with another compound), the TGI in the test with M19-MEL melanoma and in the test on RXF-631 renal was above 34.5 µM each time.

Regarding `CO[C@H](C(=O)[C@@H](O)[C@@H](C)O)[C@@H]1Cc2cc3cc(O[C@H]4C[C@@H](O[C@H]5C[C@@H](O)[C@H](O)C(C)O5)[C@H](O)C(C)O4)c(C)c(O)c3c(O)c2C(=O)[C@H]1O[C@H]1C[C@@H](O[C@H]2C[C@@H](O[C@H]3C[C@](C)(O)C(=O)C(C)O3)[C@@H](O)C(C)O2)[C@H](O)C(C)O1` (stereo partly specified), the GI50 in the test on NCI/ADR-RES ovarian is 15.3 µM; in the test on MDA-MB-231 breast, 0.145 µM; in the test with T-47D breast it was 0.0663 µM. Moreover, the TGI with NCI/ADR-RES ovarian was above 33.2 µM; with MDA-MB-231 breast, 9.97 µM.

With `COc1ccc(-c2nc3sccn3c2/C(N)=N/C(=N)N)cc1OC`, the GI50 with NCI/ADR-RES ovarian was above 100 µM; in the test on MDA-MB-231 breast it was 17.8 µM; in the test on T-47D breast, 29.1 µM. The figures for the TGI in the test on NCI/ADR-RES ovarian, in the test on MDA-MB-231 breast and in the test with T-47D breast were above 100 µM, 39.3 µM and above 100 µM, respectively.

On to `CCCCCN(CCCCC)CCCNc1c2c(nc3ccc(Cl)cc13)CCCC2`, for which the values for the GI50 in the test with NCI/ADR-RES ovarian, in the test with MDA-MB-231 breast and in the test with T-47D breast were 2.15 µM, 2.76 µM and 2.6 µM, respectively. The figures for the TGI in the test on NCI/ADR-RES ovarian, in the test with MDA-MB-231 breast and in the test with T-47D breast were 6.11 µM, 13.1 µM and 6.17 µM, respectively.

On to `Cc1ccc(C(=O)/C(=C/c2ccc([N+](=O)[O-])cc2)SCc2ccc(Cl)cc2)cc1`, for which the GI50 in the test with NCI/ADR-RES ovarian is 2.06 µM; with MDA-MB-231 breast, 1.96 µM; in the test with T-47D breast, 2.9 µM. Further, the TGI was determined as 6.81 µM in the test on NCI/ADR-RES ovarian, 5.8 µM with MDA-MB-231 breast and 36.7 µM in the test with T-47D breast.

Consider `CC/C=C\CCC/C=C1/C(=O)C=C[C@@H]1C/C=C\CCCC(=O)OC`, for which the GI50 with NCI/ADR-RES ovarian was 3.45 µM; in the test with MDA-MB-231 breast, 4.23 µM; in the test on T-47D breast it was 5.16 µM. For the same molecule, the TGI came out at 18 µM with NCI/ADR-RES ovarian, 14.9 µM in the test with MDA-MB-231 breast and 19.2 µM with T-47D breast.

As to `O=C(Nc1ccccc1)NS(=O)(=O)c1ccc(-n2nc3c(c2-c2cccs2)Cc2ccccc2-3)cc1`, the GI50 was 16.1 µM in the test on NCI/ADR-RES ovarian, 15.3 µM in the test on MDA-MB-231 breast and 37.9 µM in the test with T-47D breast. Further, the TGI is 43 µM in the test on NCI/ADR-RES ovarian, 60.8 µM with MDA-MB-231 breast and above 100 µM in the test with T-47D breast.

Regarding `CCOC(=O)CN1C(=O)c2cccc3cc([N+](=O)[O-])cc(c23)C1=O`, the TGI in the test with XF 498 CNS was 4.49 µM.

Molecule `CCCCCCCCCCCCCCCCCC(CCCCCCCCCCCCCCCCC)OP(=O)(O)O` came in with a TGI with M19-MEL melanoma above 100 µM.

As for `CC(C)=CC(=O)C1c2cccc(O)c2C(=O)c2c(O)cc(C)cc21` (stereo unspecified), the figures for the TGI with XF 498 CNS and with M19-MEL melanoma were 3.11 µM and 3.43 µM, respectively.

(Values after PubChem BioAssay (NCI).)
